From patent US20240424019A1, “SHP1 MODIFIED DENDRITIC CELLS AND EXTRACELLULAR VESICLES DERIVED THEREFROM AND ASSOCIATED METHODS” (BOARD OF REGENTS, THE UNIVERSITY OF TEXAS SYSTEM, priority 2021, published 2024) come the findings set out here.

The structures appear in SMILES notation.

Assay [1] concerns pY564-SHP1. Put plainly: Reverse phase protein array (RPPA) of BMDCs. The assay is classed as cell-based, mouse. The conditions noted are these: VitE 50 μg/ml, tumor conditioned media, 48 hours. As for the experimental part: FIG. 3A: Volcano plot of reverse phase protein array (RPPA) data of mouse BMDCs treated with VitE (50 μg/ml) compared to those treated with vehicle control with tumor conditioned media (TCM) for 48 hours (n=3 independent samples). […] The grey dashed line indicates P-value of 0.05. FIG. 3B: t-SNEs by CyTOF and quantification comparing the intensity of pY564-SHP1 in TADCs from the vehicle-or VitE-treated EMT6 tumors at day 15 post-implantation. FIG. 3C: Top, SHP1 knockdown in BMDCs was effective. Bottom, CFSE-dilution analysis of OT-1 T cells co-cultured with OVA protein-pulsed BMDCs (ratio 10:1) with knockdown of SHP1 by siPtpn6 versus siCtrl (n=3). Right, quantification of OT-1 T-cell numbers under the indicated condition. FIG. 3D: The binding of VitE to purified SHP1 is analyzed by microscale thermophoresis (MST) binding assay. […] FIG. 3E: Relative tyrosine phosphatase activity of SHP1 immunoprecipitated from LPS (100 ng/ml)-activated DC2.4 cells in the presence of indicated doses of VitE (mean of triplicates). FIG. 3F: SHP1 tyrosine phosphatase activity in LPS (100 ng/ml)-activated BMDCs (n=6) treated with vehicle-or VitE (50 μg/ml). Error bars, s.e.m. ns, no significant. *P<0.05, **P<0.01. ***P<0.001, ****P<0.0001.
To explore the molecular mechanism of VitE on DCs function, we performed a reverse-phase protein array (RPPA) analysis on DCs. […]

Assay [2] relates to OT-1 T cells. The assay is described as follows: OT-1 T cell proliferation with OVA-loaded BMDCs. The assay is classed as cell-based, mouse. The conditions noted are these: VitE-treated, OVA-loaded BMDCs vs vehicle, day 3. As for the experimental part: FIG. 2A: Percentage of human IFN-γ^+CD8^+ T cells in CD8^+ T cells in coculture with vehicle or VitE-treated autologous MoDCs (n=3). FIG. 2B: Representative flow cytometric analysis and quantification of antigen-specific OT-1 T cell proliferation stimulated with OVA-loaded mouse BMDCs that were treated with vehicle or VitE at day 3. FIG. 2C: Tumor growth curves of orthotopic EMT6 tumor-bearing mice treated with vehicle (Ctrl), Vitamin E (VitE), or VitE plus Cyt c (10 mg/kg. i.v, every other day starting on day 3) to deplete DCs (n=8/group). The statistical significance is defined by P-value: *P<0.05, **P<0.01, ***P<0.001. ****P<0.0001.
FIG. 3A: Volcano plot of reverse phase protein array (RPPA) data of mouse BMDCs treated with VitE (50 μg/ml) compared to those treated with vehicle control with tumor conditioned media (TCM) for 48 hours (n=3 independent samples). […] The grey dashed line indicates P-value of 0.05. FIG. 3B: t-SNEs by CyTOF and quantification comparing the intensity of pY564-SHP1 in TADCs from the vehicle-or VitE-treated EMT6 tumors at day 15 post-implantation. FIG. 3C: Top, SHP1 knockdown in BMDCs was effective. […] Right, quantification of OT-1 T-cell numbers under the indicated condition. FIG. 3D: The binding of VitE to purified SHP1 is analyzed by microscale thermophoresis (MST) binding assay. […]

Assay [3] deals with HY19636 KPC tumor. Put plainly: Orthotopic HY19636 KPC PDAC tumor model. The assay is classed as in vivo, mouse.
Protocol: FIG. 6E: Measurement of maximal tumor diameter in HY1936 KPC tumor-bearing mice treated with gemcitabine (GEM, 25 mg/kg by i.p.) and ICT (anti-PDI/anti-CTLA4) along with vehicle or VitE (n=5). FIG. 6F: Kaplan-Meier survival curve of HY19636 KPC tumor-bearing mice treated with vehicle, GEM (gemcitabine, 25 mg/kg by i.p.), GEM+ICT (anti-PDI/anti-CTLA4) plus vehicle or VitE (n=6).
Syngeneic orthotopic PDAC tumors were established by surgical implantation. Briefly, 2,000 HY19636 KPC cells in 50 μl PBS were injected into each pancreas of the C57BL/6J mouse.
Treatments were given as single agents or in combinations with the indicated regimens for each group. VitE (D-α-Tocopherol type VI, Cat.T1539, Sigma-Aldrich) was formulated in the vehicle (10% ethanol in sterile water) and administered by oral gavage once a day at a dose of 50 mg/kg body weight (100 μl at 10 mg/ml per day), corresponding to 400 to 600 mg/day in a human weighing 60 kg, which is within the range of doses recommended for supplement and pharmacological use. VitE treatment was initiated on day 4 ending until the ending point.
For chemo combination treatment, HY19636 KPC tumor-bearing mice were treated with gemcitabine (GEM) at 25 mg/kg body weight by i.p. injection once a week from day 7 and 4T1 TNBC tumor-bearing mice were given with doxorubicin (Dox, 5 mg/kg body weight) by i.v. once a week from day 10. The chemotherapeutic doses and schedules used in this study are below or within the range of the concentrations used in the clinic after converting drug doses between species.
Setting [4] is: VitE added to GEM+ICT vs GEM+ICT+vehicle.

For `Cc1c(C)c2c(c(C)c1O)CC[C@@](C)(CCC[C@H](C)CCC[C@H](C)CCCC(C)C)O2` [VitE, D-α-Tocopherol], the “phosphorylation of SHP1 at Y564 in DCs” value in assay [1] was “decreased the phosphorylation at tyrosine 564 (Y564)”. For the same compound, the “antigen-specific OT-1 T cells in coculture” value in assay [2] is on record as “increased the OVA-derived SIINFEKL antigen-specific OT-1 T cells in coculture”. In assay [3] (setting [4]), the survival time result is “prolonged the survival time” and the tumor growth entry is given as “effectively inhibited the HY19636KPC PDAC tumor growth”. For the same compound, the ascites entry in assay [3] (VitE added to GEM+ICT, day 25) is reported as “reduced tumor-induced ascites”.
